Laboratory results from article PMC11327140, “Selective inhibitor of sodium-calcium exchanger, SEA0400, affects NMDA receptor currents and abolishes their calcium-dependent block by tricyclic antidepressants” (Frontiers in Pharmacology, 2024).
Values joined by “and” are separate entries in the source; they are usually repeats but may differ in a detail not shown here. Equal values may be shown once. “Also recorded” adds a separate entry of the source.

What was measured:
[1] = target: NMDA receptor (NMDAR) currents (Rattus norvegicus, UniProt P35439+Q00959+Q00960); assay: Whole-cell patch-clamp recording of NMDA-activated currents in cortical neurons of primary culture; format: cell-based; conditions: for change of fraction of current blocked in the presence of SEA0400: 50 nM SEA0400, 10 µM KB-R7943, 10 µM ATL, 1 µM DES; for increase of IC50 for NMDAR inhibition in the presence of SEA0400: 50 nM SEA0400 versus control
Chain of NMDA receptor (NMDAR) currents (Q00960 27-1482 limits assumed, other chains not shown): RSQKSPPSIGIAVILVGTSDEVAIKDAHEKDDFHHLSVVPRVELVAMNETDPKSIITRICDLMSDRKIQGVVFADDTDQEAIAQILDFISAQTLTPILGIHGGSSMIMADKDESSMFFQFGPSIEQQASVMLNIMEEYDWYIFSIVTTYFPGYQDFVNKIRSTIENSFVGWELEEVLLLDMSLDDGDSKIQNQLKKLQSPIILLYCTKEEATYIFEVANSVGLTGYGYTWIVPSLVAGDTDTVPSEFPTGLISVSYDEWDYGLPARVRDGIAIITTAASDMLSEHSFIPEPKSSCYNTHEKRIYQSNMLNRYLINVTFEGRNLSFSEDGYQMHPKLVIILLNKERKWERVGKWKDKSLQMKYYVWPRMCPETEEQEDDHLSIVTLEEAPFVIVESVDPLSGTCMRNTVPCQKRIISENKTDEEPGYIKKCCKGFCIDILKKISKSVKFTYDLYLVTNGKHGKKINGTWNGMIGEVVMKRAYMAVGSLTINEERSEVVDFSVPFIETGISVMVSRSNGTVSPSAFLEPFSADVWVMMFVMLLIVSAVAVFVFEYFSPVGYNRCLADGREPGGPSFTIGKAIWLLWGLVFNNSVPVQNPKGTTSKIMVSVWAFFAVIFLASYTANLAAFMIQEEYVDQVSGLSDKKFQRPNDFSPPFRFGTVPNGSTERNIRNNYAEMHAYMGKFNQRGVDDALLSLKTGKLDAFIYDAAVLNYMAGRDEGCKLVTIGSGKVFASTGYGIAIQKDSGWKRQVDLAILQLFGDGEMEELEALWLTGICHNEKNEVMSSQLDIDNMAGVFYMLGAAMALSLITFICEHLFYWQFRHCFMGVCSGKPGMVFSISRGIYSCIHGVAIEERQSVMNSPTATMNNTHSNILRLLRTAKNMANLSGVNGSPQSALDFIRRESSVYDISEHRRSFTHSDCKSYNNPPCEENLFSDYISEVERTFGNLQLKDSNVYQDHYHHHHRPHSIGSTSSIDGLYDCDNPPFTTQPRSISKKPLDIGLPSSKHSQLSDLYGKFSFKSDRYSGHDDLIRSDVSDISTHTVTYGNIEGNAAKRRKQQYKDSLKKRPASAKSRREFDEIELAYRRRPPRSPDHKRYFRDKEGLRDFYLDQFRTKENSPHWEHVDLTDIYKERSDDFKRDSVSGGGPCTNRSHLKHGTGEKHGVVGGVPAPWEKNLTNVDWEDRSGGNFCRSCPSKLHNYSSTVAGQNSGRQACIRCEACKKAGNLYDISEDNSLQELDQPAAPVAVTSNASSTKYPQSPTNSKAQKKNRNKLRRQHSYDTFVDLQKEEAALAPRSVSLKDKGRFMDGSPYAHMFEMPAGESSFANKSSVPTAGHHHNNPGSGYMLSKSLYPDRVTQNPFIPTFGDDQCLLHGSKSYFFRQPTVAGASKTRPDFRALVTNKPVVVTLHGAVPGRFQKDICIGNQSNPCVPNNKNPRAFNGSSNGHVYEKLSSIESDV
Chain of NMDA receptor (NMDAR) currents (Q00959 23-1464 limits assumed, other chains not shown): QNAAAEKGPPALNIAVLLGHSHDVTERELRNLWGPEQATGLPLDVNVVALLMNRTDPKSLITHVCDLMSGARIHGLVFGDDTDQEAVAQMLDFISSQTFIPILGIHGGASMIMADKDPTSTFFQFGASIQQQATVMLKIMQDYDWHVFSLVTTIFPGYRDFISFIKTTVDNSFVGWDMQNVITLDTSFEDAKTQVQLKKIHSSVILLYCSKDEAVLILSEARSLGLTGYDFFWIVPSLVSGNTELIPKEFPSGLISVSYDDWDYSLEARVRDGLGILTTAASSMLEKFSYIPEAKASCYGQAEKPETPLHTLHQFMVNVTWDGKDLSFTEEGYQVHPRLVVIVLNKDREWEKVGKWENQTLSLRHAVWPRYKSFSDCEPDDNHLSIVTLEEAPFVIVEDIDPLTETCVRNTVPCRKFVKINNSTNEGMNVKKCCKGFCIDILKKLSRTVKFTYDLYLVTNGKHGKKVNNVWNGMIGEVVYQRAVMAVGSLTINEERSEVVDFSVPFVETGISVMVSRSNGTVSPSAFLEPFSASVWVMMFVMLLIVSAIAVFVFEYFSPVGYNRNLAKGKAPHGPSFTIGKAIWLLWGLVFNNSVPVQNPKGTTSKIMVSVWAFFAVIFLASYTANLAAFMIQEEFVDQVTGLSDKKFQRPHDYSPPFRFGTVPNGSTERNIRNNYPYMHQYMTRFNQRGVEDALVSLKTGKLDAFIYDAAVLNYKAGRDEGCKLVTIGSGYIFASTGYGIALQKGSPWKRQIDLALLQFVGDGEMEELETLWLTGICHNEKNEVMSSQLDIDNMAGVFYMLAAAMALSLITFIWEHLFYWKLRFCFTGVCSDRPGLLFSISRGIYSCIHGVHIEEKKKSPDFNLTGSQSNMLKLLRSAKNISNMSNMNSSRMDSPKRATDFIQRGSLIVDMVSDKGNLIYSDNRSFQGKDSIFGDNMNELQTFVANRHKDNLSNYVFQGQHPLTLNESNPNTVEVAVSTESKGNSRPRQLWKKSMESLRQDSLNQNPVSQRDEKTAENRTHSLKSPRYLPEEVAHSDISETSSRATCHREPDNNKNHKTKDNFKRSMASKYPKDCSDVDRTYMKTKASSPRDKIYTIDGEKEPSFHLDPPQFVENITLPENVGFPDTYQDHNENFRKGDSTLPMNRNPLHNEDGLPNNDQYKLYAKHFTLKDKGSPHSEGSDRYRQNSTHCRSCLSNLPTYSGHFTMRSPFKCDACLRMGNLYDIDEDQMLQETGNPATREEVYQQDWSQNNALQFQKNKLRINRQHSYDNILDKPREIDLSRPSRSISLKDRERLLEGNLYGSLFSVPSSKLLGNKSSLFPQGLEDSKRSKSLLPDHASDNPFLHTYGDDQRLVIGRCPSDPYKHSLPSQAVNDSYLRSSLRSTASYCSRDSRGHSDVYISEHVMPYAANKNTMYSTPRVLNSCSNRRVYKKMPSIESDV

[2] = test system: NMDAR currents; design: method as in Sibarov et al., 2015; conditions: 10 µM KB-R7943; ref Sibarov et al., 2015; cited from earlier work
[3] = test system: NMDAR channels; design: method as in MacDonald et al., 1991; conditions: ref MacDonald et al., 1991; cited from earlier work
[4] = test system: NCX; design: method as in Matsuda et al., 2001; conditions: ref Matsuda et al., 2001; read-out: IC50 for SEA0400 inhibition of NCX in neurons; cited from earlier work

CN(C)CCC=C1c2ccccc2CCc2ccccc21 [ATL, amitriptyline]
change of fraction of current blocked in the presence of SEA0400 ([1]; 1 mM Ca2+, -70 mV): decreased
increase of IC50 for NMDAR inhibition in the presence of SEA0400 [1]: 23 fold
increase of IC50 for NMDAR inhibition in the presence of SEA0400 ([1]; listed as amitriptyline): about 20 fold

CNCCCN1c2ccccc2CCc2ccccc21 [DES, desipramine]
change of fraction of current blocked in the presence of SEA0400 ([1]; 1 mM Ca2+, -70 mV): decreased
increase of IC50 for NMDAR inhibition in the presence of SEA0400 [1]: ~16 fold
increase of IC50 for NMDAR inhibition in the presence of SEA0400 ([1]; listed as desipramine): about 20 fold

N=C(N)SCCc1ccc(OCc2ccc([N+](=O)[O-])cc2)cc1 [KB-R7943]
change of fraction of current blocked in the presence of SEA0400 ([1]; 1 mM Ca2+, -70 mV): increased
decrease of NMDAR currents [2]: about 60%

C[C@]12N[C@H](Cc3ccccc31)c1ccccc12 [MK-801]
rate constant of dissociation from NMDAR channels [3]: ~0.003 s⁻¹

CCOc1ccc(Oc2ccc(OCc3cc(F)ccc3F)cc2)c(N)c1 [SEA0400]
IC50 [4]: 33 nM
decrease of decay time constant versus control ([1]; 50 nM SEA0400, 1 mM Ca2+): 2 fold
effect on NMDAR currents in BAPTA-loaded neurons ([1]; 50 nM SEA0400, 1 mM external Ca2+, neurons loaded with BAPTA): abolished the effect; also recorded: did not cause NMDAR inhibition
voltage dependence of decrease of steady-state amplitude ([1]; 50 nM SEA0400, -70 mV versus +30 mV, 1 mM Ca2+): did not depend on membrane voltage
effect on steady-state amplitude of NMDA-activated currents in Ca2+-free solution ([1]; 50 nM SEA0400, Ca2+ omitted from external solution, -70 mV): abolished the effect; also recorded: did not cause any decrease
IC50 ([1]; 2 mM Ca2+, -70 mV, 100 µM NMDA + 30 µM Gly, steady state, read-out: IC50 for SEA0400 inhibition of NMDA-activated currents): 27 nM and ~27 nM
decrease of steady-state amplitude of NMDAR currents (upper limit of effect) ([1]; SEA0400 itself, extracellular Ca2+ present): ≤ 30%
decay time constant of NMDAR current from peak to steady state ([1]; in the presence of 50 nM SEA0400, 1 mM Ca2+, -70 mV): 2.0 ± 0.2 s

c1ccc(C2(N3CCCCC3)CCCCC2)cc1 [phencyclidine]
rate constant of dissociation from NMDAR channels [3]: about 0.03 s^-1
